Assay results from ChEMBL document CHEMBL1687765, “NagZ inactivation prevents and reverts beta-lactam resistance, driven by AmpD and PBP 4 mutations, in Pseudomonas aeruginosa” (2010).

Legend:
Assay type in all cases: functional
[1] = test system: Pseudomonas aeruginosa; assay: Induction of creD mRNA in ampD::lox and nagZ::lox gene-deficient Pseudomonas aeruginosa PAO1 at 50 ug/ml by RT-PCR relative to wild type Pseudomonas aeruginosa PAO1 (reference value: 1.9 +/- 1.3 no unit) harboring dacB gene
[2] = test system: Pseudomonas aeruginosa; assay: Induction of creD mRNA in ampD::lox, ampDh2::lox and ampDh3::lox gene-deficient Pseudomonas aeruginosa PAO1 at 50 ug/ml by RT-PCR relative to wild type Pseudomonas aeruginosa PAO1 (reference value: 1.3 +/- 0.3 no unit)
[3] = test system: Pseudomonas aeruginosa; assay: Induction of creD mRNA in ampD::lox, ampDh2::lox,ampDh3::lox and nagZ::lox gene-deficient Pseudomonas aeruginosa PAO1 at 50 ug/ml by RT-PCR relative to wild type Pseudomonas aeruginosa PAO1 (reference value: -1.4 +/- 0.1 no unit)
[4] = test system: Pseudomonas aeruginosa; assay: Induction of creD mRNA in ampR::lox gene-deficient Pseudomonas aeruginosa PAO1 at 50 ug/ml by RT-PCR relative to wild type Pseudomonas aeruginosa PAO1 (reference value: 1.6 +/- 0.1 no unit)
[5] = test system: Pseudomonas aeruginosa; assay: Induction of ampC mRNA in Pseudomonas aeruginosa PAO1 at 50 ug/ml by RT-PCR relative to wild type Pseudomonas aeruginosa PAO1 (reference value: 1 no unit)
[6] = test system: Pseudomonas aeruginosa; assay: Induction of ampC mRNA in nagZ::lox gene-deficient Pseudomonas aeruginosa PAO1 at 50 ug/ml by RT-PCR relative to wild type Pseudomonas aeruginosa PAO1 (reference value: -2.1 +/- 1.5 no unit)
[7] = test system: Pseudomonas aeruginosa; assay: Induction of ampC mRNA in ampD::lox gene-deficient Pseudomonas aeruginosa PAO1 at 50 ug/ml by RT-PCR relative to wild type Pseudomonas aeruginosa PAO1 (reference value: 47 +/-9.5 no unit)
[8] = test system: Pseudomonas aeruginosa; assay: Induction of ampC mRNA in ampD::lox and nagZ::lox gene-deficient Pseudomonas aeruginosa PAO1 at 50 ug/ml by RT-PCR relative to wild type Pseudomonas aeruginosa PAO1 (reference value: 1 +/- 0.4 no unit)
[9] = test system: Pseudomonas aeruginosa; assay: Induction of ampC mRNA in dacB::lox gene-deficient Pseudomonas aeruginosa PAO1 at 50 ug/ml by RT-PCR relative to wild type Pseudomonas aeruginosa PAO1 (reference value: 51 +/- 16 no unit)
[10] = test system: Pseudomonas aeruginosa; assay: Induction of ampC mRNA in dacB::lox and nagZ::lox gene-deficient Pseudomonas aeruginosa PAO1 at 50 ug/ml by RT-PCR relative to wild type Pseudomonas aeruginosa PAO1 (reference value: 3 +/- 1.9 no unit)
[11] = test system: Pseudomonas aeruginosa; assay: Induction of ampC mRNA in ampD::lox gene-deficient Pseudomonas aeruginosa PAO1 at 50 ug/ml by RT-PCR relative to wild type Pseudomonas aeruginosa PAO1 (reference value: 1770 +/- 414 no unit) harboring dacB gene
[12] = test system: Pseudomonas aeruginosa; assay: Induction of ampC mRNA in ampD::lox and nagZ::lox gene-deficient Pseudomonas aeruginosa PAO1 at 50 ug/ml by RT-PCR relative to wild type Pseudomonas aeruginosa PAO1 (reference value: 40 +/- 17 no unit) harboring dacB gene
[13] = test system: Pseudomonas aeruginosa; assay: Induction of ampC mRNA in ampD::lox, ampDh2::lox and ampDh3::lox gene-deficient Pseudomonas aeruginosa PAO1 at 50 ug/ml by RT-PCR relative to wild type Pseudomonas aeruginosa PAO1 (reference value: 1020 +/- 88 no unit)
[14] = test system: Pseudomonas aeruginosa; assay: Induction of ampC mRNA in ampD::lox, ampDh2::lox,ampDh3::lox and nagZ::lox gene-deficient Pseudomonas aeruginosa PAO1 at 50 ug/ml by RT-PCR relative to wild type Pseudomonas aeruginosa PAO1 (reference value: 57 +/- 31 no unit)
[15] = test system: Pseudomonas aeruginosa; assay: Induction of ampC mRNA in ampR::lox gene-deficient Pseudomonas aeruginosa PAO1 at 50 ug/ml by RT-PCR relative to wild type Pseudomonas aeruginosa PAO1 (reference value: 3.8 +/- 0.4 no unit)
[16] = test system: Pseudomonas aeruginosa; assay: Induction of creD mRNA in Pseudomonas aeruginosa PAO1 at 50 ug/ml by RT-PCR relative to wild type Pseudomonas aeruginosa PAO1 (reference value: 1 no unit)
[17] = test system: Pseudomonas aeruginosa; assay: Induction of creD mRNA in nagZ::lox gene-deficient Pseudomonas aeruginosa PAO1 at 50 ug/ml by RT-PCR relative to wild type Pseudomonas aeruginosa PAO1 (reference value: 1.1 +/- 0.3 no unit)
[18] = test system: Pseudomonas aeruginosa; assay: Induction of creD mRNA in ampD::lox gene-deficient Pseudomonas aeruginosa PAO1 at 50 ug/ml by RT-PCR relative to wild type Pseudomonas aeruginosa PAO1 (reference value: 1.1 +/- 0.3 no unit)
[19] = test system: Pseudomonas aeruginosa; assay: Induction of creD mRNA in ampD::lox and nagZ::lox gene-deficient Pseudomonas aeruginosa PAO1 at 50 ug/ml by RT-PCR relative to wild type Pseudomonas aeruginosa PAO1 (reference value: 2.8 +/- 1.6 no unit)
[20] = test system: Pseudomonas aeruginosa; assay: Induction of creD mRNA in dacB::lox gene-deficient Pseudomonas aeruginosa PAO1 at 50 ug/ml by RT-PCR relative to wild type Pseudomonas aeruginosa PAO1 (reference value: 83 +/- 7 no unit)
[21] = test system: Pseudomonas aeruginosa; assay: Induction of creD mRNA in dacB::lox and nagZ::lox gene-deficient Pseudomonas aeruginosa PAO1 at 50 ug/ml by RT-PCR relative to wild type Pseudomonas aeruginosa PAO1 (reference value: 4 +/- 0.8 no unit)
[22] = test system: Pseudomonas aeruginosa; assay: Induction of creD mRNA in ampD::lox gene-deficient Pseudomonas aeruginosa PAO1 at 50 ug/ml by RT-PCR relative to wild type Pseudomonas aeruginosa PAO1 (reference value: 51 +/- 24 no unit) harboring dacB gene

CO[C@@]1(NC(=O)Cc2cccs2)C(=O)N2C(C(=O)O)=C(COC(N)=O)CS[C@@H]21 [CEFOXITIN]
fold change (FC) [1]: 418
fold change (FC) [2]: 1.6
fold change (FC) [3]: 1
fold change (FC) [4]: 189
fold change (FC) [5]: 78
fold change (FC) [6]: 469
fold change (FC) [7]: 134
fold change (FC) [8]: 483
fold change (FC) [9]: 232
fold change (FC) [10]: 661
fold change (FC) [11]: 1950
fold change (FC) [12]: 906
fold change (FC) [13]: 1105
fold change (FC) [14]: 905
fold change (FC) [15]: 3.3
fold change (FC) [16]: 24
fold change (FC) [17]: 54
fold change (FC) [18]: 2.7
fold change (FC) [19]: 99
fold change (FC) [20]: 120
fold change (FC) [21]: 95
fold change (FC) [22]: 81
